# Measured values reported in publication PMC7821181, “MS Binding Assays for Glycine Transporter 2 (GlyT2) Employing Org25543 as Reporter Ligand” (Chemmedchem, 2020).
# Entries after “also recorded” stand apart in the source; their conditions may differ. Read-outs that look alike come from different tables or passages of the source.
# How the values were obtained:
# [1] = target: T1, hGlyT2 (Homo sapiens, UniProt Q9Y345); test: GlyT2 MS Binding Assays: competition experiments with Org25543 as reporter ligand; details: read-out: Affinity, pKi (GlyT2 MS Binding Assays) (converted)
# T1 construct: host or cells: HEK293 cells stably expressing hGlyT2; crude membrane fractions
# T1 sequence (Q9Y345 1-797): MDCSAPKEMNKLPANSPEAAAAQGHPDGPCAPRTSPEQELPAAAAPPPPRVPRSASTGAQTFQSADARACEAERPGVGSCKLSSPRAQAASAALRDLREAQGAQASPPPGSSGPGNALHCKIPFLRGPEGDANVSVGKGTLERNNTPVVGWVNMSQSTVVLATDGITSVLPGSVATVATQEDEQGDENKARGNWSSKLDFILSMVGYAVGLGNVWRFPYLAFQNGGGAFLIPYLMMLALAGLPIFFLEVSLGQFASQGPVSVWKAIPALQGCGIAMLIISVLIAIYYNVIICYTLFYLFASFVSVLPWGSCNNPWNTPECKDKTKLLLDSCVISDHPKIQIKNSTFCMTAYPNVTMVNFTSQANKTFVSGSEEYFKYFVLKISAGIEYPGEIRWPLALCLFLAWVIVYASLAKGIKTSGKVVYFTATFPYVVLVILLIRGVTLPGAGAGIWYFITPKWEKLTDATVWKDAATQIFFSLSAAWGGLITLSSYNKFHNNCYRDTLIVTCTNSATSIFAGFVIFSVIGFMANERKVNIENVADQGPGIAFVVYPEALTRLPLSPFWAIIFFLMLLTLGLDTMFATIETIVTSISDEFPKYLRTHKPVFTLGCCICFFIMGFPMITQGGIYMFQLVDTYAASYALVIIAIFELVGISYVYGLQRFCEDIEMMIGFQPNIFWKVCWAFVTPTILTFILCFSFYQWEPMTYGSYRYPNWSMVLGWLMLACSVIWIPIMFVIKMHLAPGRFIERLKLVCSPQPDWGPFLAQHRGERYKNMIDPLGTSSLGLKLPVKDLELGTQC
# Protocol: For the development of the desired competitive MS Binding Assay, the general concept of this kind of binding experiments was followed, in which the affinity of a test compound is delineated from its potency to compete out a reporter ligand, in our case Org25543, from its target binding site. Accordingly, the target protein was incubated with a defined concentration of the reporter ligand and increasing concentration of the individual test compound. In detail, the competitors were studied at seven different concentration levels, which covered about three concentration log units, whereas the concentration of Org25543 was fixed to 10 nM. Thereafter, via the developed LC‐ESI‐MS/MS method the amount of bound marker (total binding) was determined for the samples obtained from the individual incubation mixtures by the common workup for MS Binding Assays. Nonspecific binding was again determined in a set of analogous experiments in which GlyT2 membrane fractions were replaced by material subjected to a heat‐shock before. The resulting amount of Org25543 binding was defined as 0 % level of specific reporter ligand binding. […] The thus determined IC50 values were finally used to calculate the corresponding K i values by means of the Cheng‐Prusoff equation.
# For preparation of GlyT2 membrane preparations HEK293 cells, stably expressing the hGlyT2 with a confluence ≥90 %, were used (kindly provided by AbbVie (Wiesbaden, Germany)). As cell culture medium DMEM containing 10 % fetal bovine serum (m/v), 100 U mL^−1 penicillin, 100 μg mL^−1 streptomycin and […] hygromycin B was used and the cells were cultivated in dishes (143 cm^2) at 37 °C and 8 % CO2. The cells were detached from the dish by aspirating the medium, adding 12 mL cell culture medium without hygromycin B and pipetting the medium several times until the cell lawn was completely detached. Subsequently, the cells were washed twice with PBS (5 min, 1600 rpm, Biofuge Stratos, rotor: #3047, Heraeus, Hanau, Germany) and afterwards homogenized in incubation buffer (10 mM HEPES, 120 mM NaCl, 2 mM KCl, 1 mM MgCl2, 1 mM CaCl2, pH 7.5) using a Polytron PTA 10 S (Kinematica Polytron, Littau‐Luzern, Switzerland). After homogenization aliquots of about 1 mg protein were frozen and stored at −80 °C. To determine the amount of protein in the membrane preparation (after treatment with 100 mM NaOH for 1 h) the protein determination according to Bradford ^[63] was applied, using bovine serum albumin as standard for calibration. At the day of the assay the membrane preparation was rapidly thawed, diluted in 20 mL incubation buffer and centrifuged at 4 °C for 20 min at 20 500 rpm (Sorvall Evolution RC, rotor: SS34, Thermo. Electron, Hanau, Germany). Finally, the resulting pellet was resuspended in 6 mL incubation buffer yielding a protein concentration of ∼0.1–0.2 mg mL^−1.
# In polypropylene 96‐well plates (1.2 mL well volume, Sarstedt) membrane preparations (∼5–10 μg protein) were incubated in the presence of the reporter ligand and, if required, test compounds in incubation buffer (10 mM HEPES, 120 mM NaCl, 2 mM KCl, 1 mM MgCl2, 1 mM CaCl2, pH 7.5) in a total volume of 250 μL at 37 °C in a Julabo SW‐20 C water bath (Julabo GmbH, Seelbach, Germany) for 1 h (every sample was prepared in triplicates). After the incubation 210 μL aliquots of the binding samples were transferred by means of a 12‐channel pipette onto 96‐well glass fiber filter plates (AcroPrep Advance, glass fiber, 1.0 μm, 350 μL; Pall Corporation, Port Washington, NY, USA) where the incubation was terminated by vacuum filtration (the samples were transferred and the incubation was terminated row after row; Multi Well Plate Vacuum Manifold, Pall, Dreieich, Germany).
# [2] = tested on: GlyT2; details: cited from earlier work; for IC50: read-out: Biological activity, IC50 (literature)
# [3] = set-up: method as in PMID 23962079; details: after intravenous injection; cited from earlier work
# [4] = target: T2, GlyT2 (Homo sapiens, UniProt Q9Y345); test: influence of DMA on binding of Org25543 towards GlyT2 in competition experiments; details: DMA as competitor, up to a concentration of 2 % (215 mM)
# T2 construct: host or cells: HEK293 cells stably expressing hGlyT2; crude membrane fractions
# T2 sequence (Q9Y345 1-797): T1 sequence (Q9Y345 1-797)
# Protocol: Investigating adsorption of Org25543 to polypropylene container material To investigate the adsorption ability of Org25543 to polypropylene container material dilution series of Org25543 were prepared in reaction tubes (1.5 mL, PP, Sarstedt, Nümbrecht, Germany) using different solvents or solvent mixtures, respectively (H2O, acetonitrile, H2O/DMSO (80:20, v/v), H2O/N,N-dimethylacetamide (DMA; 80:20, 90:10 and 95:5 v/v)). At least five concentration levels (10-fold concentration; 10 nM – 625 pM) were prepared in each solvent and these concentration levels were diluted again 1:10 (final concentrations of Org25543: 1 nM – 62.5 pM) in a mixture of ammonium bicarbonate buffer (5 mM, pH7.8) and acetonitrile containing 111 pM [2H7]Org25543 (final concentration: 100 pM) that the final sample solvent equals the mobile phase.
# Then the samples were subjected to LC-ESI-MS/MS quantification and the obtained peak area ratios of Org25543 and [ 2H7]Org25543 were plotted against the concentration of Org25543. By using linear regression analysis calibration curves were obtained for all dilution series and were compared to each other. The calibration curves are depicted in Figure S 4.
# Investigating the influence of N,N-dimethylacetamide (DMA) on the binding of Org25543 towards GlyT2 in competition experiments […]
# [5] = ref 18; cited from earlier work
Structure (SMILES),Ki [1] [nM],"IC50 ([2]; ref 11, 40) [nM]",fraction crossing the blood‐brain‐barrier [3] [%],"influence on Org25543 binding at GlyT2, in words [4]","pIC50 (literature; calcd) ([2]; calcd from literature IC50, ref 18)",IC50 ([2]; ref 18) [nM],critical micelle concentration (CMC) [5] [µM]
"N[C@@H](COC(c1cccc(F)c1)c1ccccc1OCc1ccccc1)C(=O)O (some centres unmarked) [ALX1393, O‐[(2‐benzyloxyphenyl‐3‐flurophenyl)methyl]‐L‐serine]",1170,26 to 100,5,,,,
"CC(=O)N(C)C [DMA, N,N‐dimethylacetamide]",,,,no influence on the Org25543 binding at GlyT2; also recorded: not effect Org25543 binding,,,
"CCCCCCCC/C=C\CCCCCCCC(=O)O[C@H](CC(=O)[O-])C[N+](C)(C)C [oleoyl‐L‐carnitine, Oleoyl‐L‐carnitine]",2630,,,,6.47,340,7.4
